Assay results reported in patent publication US9505798B2, “Steroid compounds as RORyt modulators and uses thereof” (New York University, priority 2010, dated 2016).

Columns and labels:
human memory Th17 cells = details: 40 μM, 6 days
Description: Mononuclear cells were collected from draining lymph nodes of wild-type or IL-23RGFP knock-in heterozygous mice 7 days after MOG(35-55)/CFA injection.
Blood samples were obtained from the New York Blood Center. Mononuclear cells were prepared from buffy coats from healthy adult donors or from cord blood, using FicollPAQUE gradients. CD4^+ T cells were magnetically selected (autoMACS, Miltenyi). Adult memory CD4^+ T cell subsets were further purified as CD3^+CD4^+CD25^− CD45RO^+CCR6^+CD161^+ by cell sorting on a FACSAria (BD). Naive CD4^+ T cells were isolated from cord blood as CD3^+CD4^+CD45RA^+HLA-DR^−CD25^−DAPI^−. Memory cells were activated with anti-CD3/CD28 coated beads (1 bead/cell) in T cell media (see above) supplemented with 100 U/mL IL-2 (Peprotech), 10 ng/mL IL-1b and 10 ng/mL IL-23 (eBioscience). Naive cells were activated with anti-CD3/CD28 beads and cultured with the same cytokines, and TGF-b (0, 0.1, 1, or, 10 ng/mL) (Peprotech), in XVIVO-20 (Lonza) media. […] Naive CD4^+ T cells, cultured in XVIVO-20 media supplemented 100 U/mL IL-2 (Peprotech), were transduced with RORad-IRES-GFP or RORγt-IRES-GFP on day 1 and analyzed on day 6. […]
Blood samples were obtained from the New York Blood Center. […] Naive CD4+ T cells, cultured in XVIVO-20 media supplemented with 100 U/mL IL-2 (Peprotech), were transduced with RORαd-IRES-GFP or RORγt-IRES-GFP on day 1 and analyzed on day 6. […]

[1] = biological target: T1, RORγt binding to Il17a/f and Il23r loci (Mus musculus, UniProt P51450); test: Chromatin immunoprecipitation of RORγt at target loci in Th17-polarized cells; assay type: cell-based; details: 10 and 20 μM, ChIP
T1 construct: endogenous in cells; host or cells: mouse Th17-polarized CD4+ T cells
T1 sequence (P51450 1-495 isoform P51450-2): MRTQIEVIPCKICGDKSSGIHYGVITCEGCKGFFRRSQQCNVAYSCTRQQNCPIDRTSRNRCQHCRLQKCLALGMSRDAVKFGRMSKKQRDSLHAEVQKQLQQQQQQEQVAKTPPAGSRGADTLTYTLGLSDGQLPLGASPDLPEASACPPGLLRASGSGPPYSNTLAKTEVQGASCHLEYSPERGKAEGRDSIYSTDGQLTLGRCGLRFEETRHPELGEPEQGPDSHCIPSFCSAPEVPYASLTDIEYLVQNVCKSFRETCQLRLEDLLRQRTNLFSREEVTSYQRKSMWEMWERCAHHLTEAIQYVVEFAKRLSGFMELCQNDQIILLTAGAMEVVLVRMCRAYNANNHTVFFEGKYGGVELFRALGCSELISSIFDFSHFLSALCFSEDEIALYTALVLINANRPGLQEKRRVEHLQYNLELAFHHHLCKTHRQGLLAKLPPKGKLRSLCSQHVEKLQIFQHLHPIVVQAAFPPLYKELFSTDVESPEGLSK

[2] = test system: aryl hydrocarbon receptor (AHR); test: AHR ligand FICZ effect on RORα-dependent IL-17a expression; assay type: cell-based, mouse; details: FICZ added

SMILES | IFN-γ-expressing cells (human memory Th17 cells) | reduction of IL-17a-expressing cells (human memory Th17 cells) | RORγt binding to sites in Il17a/f and Il23r [1] | AHR activity [2]
CC1O[C@@H](OC2C(C)O[C@H](OC3C(C)O[C@@H](O[C@H]4CC[C@@]5(C)[C@H](CC[C@@H]6[C@@H]5C[C@@H](O)[C@]5(C)[C@@H](C(CO)CCO)CC[C@]65O)C4)C[C@H]3O)C[C@H]2O)C[C@@H](O)C1O (stereo partly shown) [Compound 13, 20,22-Dihydrodigoxin-21,23-diol] | little effect | 40-50% |  | 
C[C@H]1O[C@@H](O[C@H]2[C@@H](O)C[C@H](O[C@H]3[C@@H](O)C[C@H](O[C@H]4CC[C@@]5(C)[C@H](CC[C@@H]6[C@@H]5C[C@@H](O)[C@]5(C)[C@@H](C7=CC(=O)OC7)CC[C@]65O)C4)O[C@@H]3C)O[C@@H]2C)C[C@H](O)[C@@H]1O [Digoxin] |  |  | substantially reduced | unaffected
